“And” between values parts separate entries of the source, which are not always exact repeats. Equal entries are not always repeated. “Also recorded” adds a separate entry of the source.
Columns and labels:
[1] = target: T1, fatty acid amide hydrolase (FAAH) (Rattus norvegicus, UniProt P97612); details: rat brain homogenates; read-out: IC50, inhibition of anandamide hydrolysis; cited from earlier work
T1 construct: from tissue; host or cells: rat brain homogenates
T1 sequence (P97612 1-579): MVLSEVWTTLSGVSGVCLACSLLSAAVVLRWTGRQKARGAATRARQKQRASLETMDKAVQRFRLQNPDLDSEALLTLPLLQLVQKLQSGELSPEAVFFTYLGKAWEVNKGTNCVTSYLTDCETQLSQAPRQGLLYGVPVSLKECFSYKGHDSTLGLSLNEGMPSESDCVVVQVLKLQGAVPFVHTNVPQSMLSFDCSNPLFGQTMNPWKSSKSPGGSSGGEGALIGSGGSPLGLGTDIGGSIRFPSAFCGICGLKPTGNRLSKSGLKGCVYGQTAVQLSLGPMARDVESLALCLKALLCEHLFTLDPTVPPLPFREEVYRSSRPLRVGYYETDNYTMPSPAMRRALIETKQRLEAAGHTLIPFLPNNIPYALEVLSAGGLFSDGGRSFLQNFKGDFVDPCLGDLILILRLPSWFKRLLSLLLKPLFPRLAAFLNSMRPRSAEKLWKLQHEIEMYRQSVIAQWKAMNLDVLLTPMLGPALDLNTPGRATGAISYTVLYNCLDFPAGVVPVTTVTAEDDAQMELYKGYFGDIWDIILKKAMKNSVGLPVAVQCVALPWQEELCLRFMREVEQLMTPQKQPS

HCV infected cells = details: in vitro; cited from earlier work
[2] = cited from earlier work
GPR55 = GPR55 (Homo sapiens, UniProt Q9Y2T6); details: cited from earlier work
GPR55, sequence (Q9Y2T6 whole entry, species assumed): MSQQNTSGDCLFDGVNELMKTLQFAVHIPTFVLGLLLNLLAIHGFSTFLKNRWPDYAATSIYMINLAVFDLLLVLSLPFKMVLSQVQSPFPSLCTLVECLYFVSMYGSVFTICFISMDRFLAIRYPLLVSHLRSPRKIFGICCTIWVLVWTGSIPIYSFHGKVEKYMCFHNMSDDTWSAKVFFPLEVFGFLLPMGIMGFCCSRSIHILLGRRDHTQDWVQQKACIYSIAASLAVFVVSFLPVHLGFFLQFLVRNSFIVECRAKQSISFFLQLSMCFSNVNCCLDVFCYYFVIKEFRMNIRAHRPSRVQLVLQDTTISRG

CB1 and CB2 = details: cited from earlier work; for Agonism or antagonism against CB1 and CB2: up to 20 μM
[3] = system: TCR β chain immune repertoire; assay: T cell receptor β chain immune repertoire diversity index after a controlled dose (iRepertoire sequencing of blood); assay type: in vivo, human; details: for Total number of clonotypes: within 24-48 hr of applied dose
HIV [4] = details: cited from earlier work
[5] = system: A/H1N1 Singapore 6/86 influenza virus; details: cited from earlier work
HIV [6] = details: 293.27.2, H9, MOLT-4 cells, PBMCs; with or without TNFα / PMA stimulation; cited from earlier work
[7] = system: influenza A (H5N1) viruses; details: lung epithelial cells; cited from earlier work
[8] = system: A/swine/HeBei/012/2008 (H9N2) viruses; details: intra-nasal inoculation with or without NAC; cited from earlier work
human PBMCs = details: NAC 1 mM, in vitro; cited from earlier work
[9] = Intoxication after topical application of THC salve; details: 10 mg THC, application for three days
[10] = target: monoacylglycerol lipase (MAGL); details: reversible mechanism; read-out: IC50, inhibition of MAGL; cited from earlier work
CB1 receptor = CB1 receptor (Homo sapiens, UniProt P21554); details: read-out: I value at the CB1 receptor; cited from earlier work
CB1 receptor, sequence (P21554 whole entry): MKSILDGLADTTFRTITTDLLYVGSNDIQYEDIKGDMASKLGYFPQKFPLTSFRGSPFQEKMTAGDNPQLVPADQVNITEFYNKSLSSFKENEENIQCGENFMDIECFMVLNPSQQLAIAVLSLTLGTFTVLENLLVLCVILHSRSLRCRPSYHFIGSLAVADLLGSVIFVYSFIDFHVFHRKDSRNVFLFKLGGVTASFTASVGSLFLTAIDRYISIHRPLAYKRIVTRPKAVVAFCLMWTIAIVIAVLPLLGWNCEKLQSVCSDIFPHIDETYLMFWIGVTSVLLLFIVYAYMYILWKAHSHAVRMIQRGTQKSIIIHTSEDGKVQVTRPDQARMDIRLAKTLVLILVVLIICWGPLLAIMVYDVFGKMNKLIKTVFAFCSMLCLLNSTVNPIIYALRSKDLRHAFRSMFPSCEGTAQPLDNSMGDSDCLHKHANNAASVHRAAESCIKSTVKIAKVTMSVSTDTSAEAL

[11] = system: influenza virus strain A/PR8(H1N1); details: lethal influenza infection in mice; cited from earlier work
influenza virus = details: combination with ribavirin vs ribavirin alone; cited from earlier work
CB2 receptor = CB2 receptor (Homo sapiens, UniProt P34972); details: nM concentrations; cited from earlier work
CB2 receptor, sequence (P34972 whole entry): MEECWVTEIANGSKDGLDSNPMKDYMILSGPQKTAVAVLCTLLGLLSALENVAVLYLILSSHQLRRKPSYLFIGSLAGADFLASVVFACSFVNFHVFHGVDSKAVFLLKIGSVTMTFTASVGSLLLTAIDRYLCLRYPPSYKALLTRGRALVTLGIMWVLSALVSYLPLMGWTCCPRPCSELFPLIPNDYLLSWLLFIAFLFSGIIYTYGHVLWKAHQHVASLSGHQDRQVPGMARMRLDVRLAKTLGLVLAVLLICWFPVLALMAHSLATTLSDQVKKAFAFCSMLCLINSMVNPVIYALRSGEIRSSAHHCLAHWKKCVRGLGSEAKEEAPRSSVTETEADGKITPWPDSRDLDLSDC

## O=c1cc(-c2ccccc2)oc2cc(O)ccc12 [7-hydroxyflavone]
[1]
  IC50: < 1 µM

## C=C(C)[C@@H]1CCC(C)=C[C@H]1c1c(O)cc(CCCCC)cc1O [CBD, cannabidiol]
HCV infected cells
  Cell death of HCV infected cells: approximately 85%

## CCCCCc1cc(O)c2c(c1)OC(C)(C)[C@@H]1CCC(C)=C[C@@H]21 [Dronabinol]
[2]; oral
  Amount reaching the blood stream by absorption through the digestive system: 10-20 % of the administered dose
[2]; post administration
  Duration of peak therapeutic effect: 2 to 4 h

## Cc1cccc(N2CCN(C(=O)c3cc(S(=O)(=O)N(C)C)ccc3N3CCCC3)CC2)c1C [ML184]
GPR55
  Potency for GPR55: 0.263 µM
CB1 and CB2
  Selectivity against CB1 and CB2: 57 fold

## COc1ccc(-c2csc(NC(=O)CSc3nnc4c(C)cc5ccccc5n34)n2)cc1 [ML185]
GPR55
  Potency for GPR55: 0.658 µM
CB1 and CB2
  Selectivity against CB1 and CB2: greater than 48 fold

## COc1ccc(S(=O)(=O)N2CCOCC2)cc1NC(=O)c1cc2c(s1)CCCC2 [ML186]
GPR55
  Potency for GPR55: 0.305 µM
CB1 and CB2
  Selectivity against CB1 and CB2: greater than 100 fold

## Cc1ccc(C2(C(=O)N3CCC(n4nc(-c5ccccc5)oc4=O)CC3)CC2)cc1 [ML191]
CB1 and CB2
  Agonism or antagonism against CB1 and CB2: no observed agonism or antagonism

## Cc1nc(N2CCN(C(=O)c3ccco3)CC2)c2c3c(sc2n1)CCCC3 [ML192]
CB1 and CB2
  Agonism or antagonism against CB1 and CB2: no observed agonism or antagonism

## Cc1cc(C)c2nc(-c3ccccn3)cc(C(=O)Nc3ccc(S(=O)(=O)Nc4onc(C)c4C)cc3)c2c1 [ML193]
CB1 and CB2
  Agonism or antagonism against CB1 and CB2: no observed agonism or antagonism

## CC(=O)N[C@@H](CS)C(=O)O [NAC, N-acetylcysteine]
[3]; NAC single 1200 mg dose (2×600 mg effervescent tablets), 24 hours post dose
  Diversity index, Dosed: 20.0 and 15.9
[3]; NAC single 1200 mg dose, 24 hours vs baseline
  Diversity index, Fold change: 1.6 fold and 1.5 fold
[3]; after a single dose
  Time until immune diversity returns to baseline: 24 h
[3]
  Total number of clonotypes: increases
HIV [4]; 73 subjects with survival data, P=0.0003, median NAC dose 5.3 g/day, median 24 weeks
  Survival, risk ratio: 0.3 (0.1-0.6)
HIV [4]; NAC treatment during the trial, P>0.1
  Viral load: did not result in a significant change
HIV [4]; NAC treatment during the trial, P>0.9
  CD4 T cell count: did not result in a significant change
HIV [4]; NAC treatment for 8 weeks
  Whole blood GSH and T cell GSH: replenished
[5]; NAC 600 mg twice daily for 6 months
  Tolerability: well tolerated
[5]; NAC effervescent tablets 600 mg twice daily for 6 months, 79% in the placebo group
  Virus-infected subjects who developed a symptomatic form: 25%
HIV [6]
  HIV replication: inhibit HIV replication; also recorded: blocked stimulation of HIV replication
[7]
  Production of pro-inflammatory molecules: inhibit
[8]
  Pulmonary inflammation, edema, myeloperoxidase, cells and cytokines in BAL fluid: reduced
Human PBMCs
  Influenza virus specific T lymphocyte proliferation and IFNγ production: increase

## CCCCCc1cc(O)c2c(c1)OC(C)(C)[C@@H]1CCC(C)=C[C@@H]21 [THC, Δ^9-tetrahydrocannabinol]
[3]
  Total number of clonotypes: rapidly increases
[9]
  Intoxication characteristic of THC: without intoxication

## CC(C)=CCC[C@@H](C)[C@@H]1CC[C@]2(C)C3=C(CC[C@@]12C)[C@@]1(C)CC[C@H](O)C(C)(C)[C@@H]1CC3 [euphol]
[10]
  IC50: 0.315 µM

## C=C[C@H](O)C#CC#CC/C=C\CCCCCCC [falcarinol]
CB1 receptor
  Ki: < 1 µM

## CCOC(=O)C1=C[C@@H](OC(CC)CC)[C@H](NC(C)=O)[C@@H](N)C1 [oseltamivir]
[11]
  Survival rate: 60%

## NC(=O)c1ncn([C@@H]2O[C@H](CO)[C@@H](O)[C@H]2O)n1 [ribavirin]
Influenza virus
  Survival rate: 58%

## C=C1CC/C=C(\C)CC[C@@H]2[C@@H]1CC2(C)C [β-caryophyllene]
CB2 receptor
  Functional activity at the CB2 receptor: full agonist
